From patent US9757375B2, “Compounds that inhibit human DNA ligases and methods of treating cancer” (University of Maryland, Baltimore, priority 2007, dated 2017)
Entries after “also recorded” stand apart in the source; their conditions may differ. Like-named read-outs stand apart in the source and are kept apart here.

What was measured:
[1] = target: T1, hLigI (Homo sapiens, UniProt P18858); assay: High-throughput fluorescence-based DNA joining (ligation) assay; type: biochemical; details: for inhibition of hLigI (DNA ligase I), in words: in vitro screen, 100 μmol/L, the 15 hLigI inhibitors inhibited by >50%
T1 construct: made in house
Method in brief: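 Nicked DNA substrate (10 pmol) was incubated with 0.25 pmol hLigI, with or without 100 μmol/L test compound, in duplicate. Afterwards the DNA was denatured and renatured with a 20-fold excess of unmodified oligonucleotide. Ligation forms an AF488/BHQ1 hairpin, read as reduced fluorescence at 518 nm.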

[2] = target: T2, hLigIIIβ (Homo sapiens, UniProt P49916); assay: Radioactive gel-based DNA ligation assay; type: biochemical; details: grades ±, Ø (key not given)
T2 sequence (P49916 1-862 isoform P49916-4): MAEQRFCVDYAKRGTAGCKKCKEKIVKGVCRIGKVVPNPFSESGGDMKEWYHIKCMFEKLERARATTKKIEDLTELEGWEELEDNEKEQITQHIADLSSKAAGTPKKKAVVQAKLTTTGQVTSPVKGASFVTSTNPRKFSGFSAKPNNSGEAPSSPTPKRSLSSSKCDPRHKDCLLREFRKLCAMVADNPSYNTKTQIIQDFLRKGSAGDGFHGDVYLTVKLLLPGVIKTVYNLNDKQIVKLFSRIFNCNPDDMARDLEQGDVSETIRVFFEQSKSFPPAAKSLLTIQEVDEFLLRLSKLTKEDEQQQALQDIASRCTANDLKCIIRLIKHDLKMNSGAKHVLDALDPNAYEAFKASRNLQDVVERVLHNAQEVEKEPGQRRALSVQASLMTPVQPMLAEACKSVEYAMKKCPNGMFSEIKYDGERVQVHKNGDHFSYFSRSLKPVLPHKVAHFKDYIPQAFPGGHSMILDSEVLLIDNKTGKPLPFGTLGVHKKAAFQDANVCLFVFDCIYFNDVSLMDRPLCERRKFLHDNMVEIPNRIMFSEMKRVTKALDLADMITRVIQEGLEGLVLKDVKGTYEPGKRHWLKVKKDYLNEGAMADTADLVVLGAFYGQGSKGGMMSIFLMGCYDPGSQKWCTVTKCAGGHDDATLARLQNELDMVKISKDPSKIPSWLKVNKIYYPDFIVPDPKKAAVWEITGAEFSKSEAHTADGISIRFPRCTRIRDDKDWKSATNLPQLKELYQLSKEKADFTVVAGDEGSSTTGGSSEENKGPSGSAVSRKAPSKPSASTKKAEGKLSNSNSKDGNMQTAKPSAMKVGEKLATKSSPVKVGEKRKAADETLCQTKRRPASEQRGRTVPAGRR

[3] = target: T3, T4 DNA ligase (Enterobacteria phage T4, UniProt P00970); assay: High-throughput fluorescence-based DNA joining assay, non-specific inhibitor control; type: biochemical, bacteriophage T4
T3 construct: purchased NEB
T3 sequence (P00970 1-487): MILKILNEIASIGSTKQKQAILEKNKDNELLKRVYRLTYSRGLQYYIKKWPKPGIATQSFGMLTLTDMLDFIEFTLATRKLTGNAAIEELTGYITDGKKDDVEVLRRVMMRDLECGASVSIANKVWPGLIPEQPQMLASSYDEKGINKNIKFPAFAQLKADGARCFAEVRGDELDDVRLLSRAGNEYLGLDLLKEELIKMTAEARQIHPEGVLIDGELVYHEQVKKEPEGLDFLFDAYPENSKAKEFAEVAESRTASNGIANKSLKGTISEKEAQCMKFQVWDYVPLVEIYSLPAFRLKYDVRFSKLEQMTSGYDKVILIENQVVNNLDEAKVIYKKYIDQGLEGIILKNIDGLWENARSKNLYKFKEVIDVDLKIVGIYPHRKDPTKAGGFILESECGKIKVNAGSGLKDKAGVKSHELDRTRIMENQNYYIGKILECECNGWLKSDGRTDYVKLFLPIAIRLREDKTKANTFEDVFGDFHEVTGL
Procedure: Candidate ligase inhibitors identified by CADD were assayed for their ability to inhibit hLigI and T4 DNA ligase using a high-throughput, fluorescence energy transfer-based DNA joining assay (22). Duplicate reactions (30 μL) containing 10 pmol of nicked DNA substrate and either 0.25 pmol of hLigI or 10 units of T4 DNA ligase were incubated in the presence or absence of 100 μmol/L of the putative inhibitor. DNA binding by the candidate DNA ligase inhibitors was measured by displacement of ethidium bromide from DNA as previously described (30).
In addition, to identify compounds that may be non-specific inhibitors of DNA joining, the 192 compounds were also assayed for their ability to inhibit bacteriophage T4 DNA ligase, an enzyme that utilizes the same reaction mechanism as hLigI, has similar adenylation and OB-fold domains but lacks a DBD domain. (6) Although this is also an ATP-dependent DNA ligase, it lacks the domain containing the binding pocket targeted by the in silico screen. Compounds that inhibited T4 DNA ligase were eliminated as non-specific inhibitors that most likely bind to the DNA.

[4] = target: human DNA ligase IV (Homo sapiens, UniProt P49917); assay: High-throughput fluorescence-based DNA joining (ligation) assay; type: biochemical; details: for inhibition of human DNA ligase IV, in words: in vitro screen
Method in brief: (§1)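 Ligation joins an AF488-labelled and a BHQ1-labelled oligonucleotide. After denaturation and renaturation with a 20-fold excess of unlabelled competitor strand, the product forms a quenched hairpin, so joining is read as loss of 518 nm fluorescence. Ligase III used a nicked duplex; ligase IV used two duplexes with short complementary single-strand ends.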

[5] = target: T4, human DNA ligase III (Homo sapiens, UniProt P49916); assay: as above; type: biochemical; details: for inhibition at 100 µM: read-out: In vitro % inhib hLigIII 100; for % activity Inhibition hLigIII 100 uM: Ø not defined (0 in Table 5A)
T4 sequence (P49916 1-862 isoform P49916-4): T2 sequence (P49916 1-862 isoform P49916-4)
Method in brief: as §1

[6] = system: Human DNA ligases I, III and IV and T4 DNA ligase; assay: Step 3 of the ligation reaction: ligation of preadenylated nick by non-adenylated ligase; type: biochemical; details: 100 μM, FIG. 3C
Procedure: To analyze step 3 of the ligation reaction, an adenylated labeled version of the 18-mer was prepared as described (24). The DNA substrate containing a preadenylated nick (0.5 pmol) and hLigI (0.05 pmol), hLigIIIβ (0.05 pmol), hLigIV/XRCC4 (0.1 pmol), or T4 DNA ligase (0.05 pmol) were incubated in ligation buffer without ATP, either in the presence or absence of the ligase inhibitors (100 μmol/L). Reactions were stopped by the addition of an equal volume of gel loading dye (95% formamide, 0.05% bromophenol blue, and 0.05% xylene cyanol). After heating at 95° C. for 5 min, DNA was separated by denaturing polyacrylamide gel electrophoresis. Labeled oligonucleotides were detected and quantitated in the dried gel by phosphorImager analysis (Molecular Dynamics).
Since the final two steps of the ligation reaction involve interactions with DNA, we examined the effects of the ligase inhibitors on the second (FIG. 3B) (The labeled ligase-adenylate form of human DNA ligases I, III and IV and T4 DNA ligase were incubated with a linear DNA substrate containing a single non-ligatable nick in the absence or presence of compounds 67, 82 and 189 (100 μM). After separation by denaturing gel electrophoresis, the labeled DNA-AMP complex was detected by phosphorimaging (26)) and third steps (FIG. 3C) of the ligation reaction using established assays (25,26) (Non-adenylated human DNA ligases I, III and IV and T4 DNA ligase were incubated with labeled DNA-AMP in the absence or presence of compounds 67, 82 and 189 (100 μM). After separation by denaturing gel electrophoresis, labeled ligated DNA was detected by phosphorimaging (25)).

[7] = target: hLigIV/XRCC4 (Homo sapiens, UniProt P49917); assay: Radioactive gel-based DNA ligation assay; type: biochemical; set-up: concentration or dose not given beside the values
[8] = system: MCF7, HCT116, HeLa, and MCF10A cells; assay: Survival assay on cell panel (FIG. 9); type: cell-based, human; details: Homo sapiens; cell line not stated
From the text: FIG. 9. […] A, effect of L67 (left) and L189 (right) on the survival of MCF7 (Δ), HCT116 (□), HeLa (⋄), and MCF10A (upsidedown triangle) cells. B, normal breast epithelial MCF10A cells (open symbols) and breast cancer MCF7 cells (filled symbols) in the absence (circles) or presence of 3 μmol/L of L67 (squares) were exposed to increasing concentrations of MMS (left). Normal breast epithelial MCF10A cells (open symbols) and colon cancer HCT116 cells (filled symbols) in the absence (circles) or presence of 20 μmol/L of L189 (squares) were exposed to increasing doses of ionizing radiation (right). C, hLigI (I), hLigIIIα (III), and hLigIV (IV) were detected in extracts (400 μg) of the indicated cell lines by immunoblotting. To control for extract loading β-actin was also detected by immunoblotting.
For survival assays, cells were plated in 6 well plates and grown either in the absence or presence of ligase inhibitors. Where indicated, either MMS (0-50 μM) was added to the medium or the cells were irradiated in a Cs-137 irradiator (0-2.5 Gy). After two weeks, colonies were stained with crystal violet (Sigma) and then counted.

[9] = 100 μM, read-out: In vitro % inhib hLigI 100
[10] = 100 μM, read-out: In vitro % inhib T4 100
[11] = 100 μM, read-out: In vitro % inhib hLigIV 100
[12] = 100 uM, Ø not defined (0 in Table 5A)
[13] = 100 uM, Ø not defined (0 in Table 5A), read-out: % activity Inhibition hLigIV 100 uM

Chain of hLigIV/XRCC4 (P49917 whole entry): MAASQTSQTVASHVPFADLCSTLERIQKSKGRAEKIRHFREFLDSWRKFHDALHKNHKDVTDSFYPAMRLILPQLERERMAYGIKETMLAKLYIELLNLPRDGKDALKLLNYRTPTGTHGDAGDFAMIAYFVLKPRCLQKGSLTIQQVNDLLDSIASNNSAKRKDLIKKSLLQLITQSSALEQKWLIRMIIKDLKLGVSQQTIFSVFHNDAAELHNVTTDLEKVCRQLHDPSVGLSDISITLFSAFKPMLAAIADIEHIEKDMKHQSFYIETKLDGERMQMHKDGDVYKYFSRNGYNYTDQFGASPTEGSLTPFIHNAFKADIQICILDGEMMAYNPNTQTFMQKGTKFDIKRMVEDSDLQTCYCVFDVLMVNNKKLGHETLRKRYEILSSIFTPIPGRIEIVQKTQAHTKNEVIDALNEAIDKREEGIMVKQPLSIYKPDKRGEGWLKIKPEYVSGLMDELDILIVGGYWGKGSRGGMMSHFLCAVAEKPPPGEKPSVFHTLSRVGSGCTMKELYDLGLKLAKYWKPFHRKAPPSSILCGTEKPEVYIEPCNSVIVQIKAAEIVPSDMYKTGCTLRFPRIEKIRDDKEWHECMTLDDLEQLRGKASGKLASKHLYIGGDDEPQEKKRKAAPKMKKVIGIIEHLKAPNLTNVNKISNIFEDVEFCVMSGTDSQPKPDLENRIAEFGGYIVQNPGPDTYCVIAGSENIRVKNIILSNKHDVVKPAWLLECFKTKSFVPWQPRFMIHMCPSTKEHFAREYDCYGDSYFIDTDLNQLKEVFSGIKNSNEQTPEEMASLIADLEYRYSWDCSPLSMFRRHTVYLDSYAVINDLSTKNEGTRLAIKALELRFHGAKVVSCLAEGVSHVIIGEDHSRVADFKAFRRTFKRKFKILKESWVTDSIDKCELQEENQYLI
Chain of hLigIV/XRCC4 (Q13426 whole entry partner): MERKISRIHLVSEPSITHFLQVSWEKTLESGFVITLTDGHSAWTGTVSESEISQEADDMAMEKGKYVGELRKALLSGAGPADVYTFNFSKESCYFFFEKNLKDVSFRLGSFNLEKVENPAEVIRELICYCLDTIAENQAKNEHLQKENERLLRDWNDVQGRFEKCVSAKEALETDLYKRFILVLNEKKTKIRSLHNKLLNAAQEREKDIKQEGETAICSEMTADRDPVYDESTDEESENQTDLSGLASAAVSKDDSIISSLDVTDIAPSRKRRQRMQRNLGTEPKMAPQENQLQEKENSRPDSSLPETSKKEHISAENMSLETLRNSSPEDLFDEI
Chain of human DNA ligase IV (P49917 whole entry): as the sequence (P49917 whole entry) above
Chain of human DNA ligase IV (Q13426 whole entry partner): as the sequence (Q13426 whole entry partner) above
T1 sequence (P18858 whole entry): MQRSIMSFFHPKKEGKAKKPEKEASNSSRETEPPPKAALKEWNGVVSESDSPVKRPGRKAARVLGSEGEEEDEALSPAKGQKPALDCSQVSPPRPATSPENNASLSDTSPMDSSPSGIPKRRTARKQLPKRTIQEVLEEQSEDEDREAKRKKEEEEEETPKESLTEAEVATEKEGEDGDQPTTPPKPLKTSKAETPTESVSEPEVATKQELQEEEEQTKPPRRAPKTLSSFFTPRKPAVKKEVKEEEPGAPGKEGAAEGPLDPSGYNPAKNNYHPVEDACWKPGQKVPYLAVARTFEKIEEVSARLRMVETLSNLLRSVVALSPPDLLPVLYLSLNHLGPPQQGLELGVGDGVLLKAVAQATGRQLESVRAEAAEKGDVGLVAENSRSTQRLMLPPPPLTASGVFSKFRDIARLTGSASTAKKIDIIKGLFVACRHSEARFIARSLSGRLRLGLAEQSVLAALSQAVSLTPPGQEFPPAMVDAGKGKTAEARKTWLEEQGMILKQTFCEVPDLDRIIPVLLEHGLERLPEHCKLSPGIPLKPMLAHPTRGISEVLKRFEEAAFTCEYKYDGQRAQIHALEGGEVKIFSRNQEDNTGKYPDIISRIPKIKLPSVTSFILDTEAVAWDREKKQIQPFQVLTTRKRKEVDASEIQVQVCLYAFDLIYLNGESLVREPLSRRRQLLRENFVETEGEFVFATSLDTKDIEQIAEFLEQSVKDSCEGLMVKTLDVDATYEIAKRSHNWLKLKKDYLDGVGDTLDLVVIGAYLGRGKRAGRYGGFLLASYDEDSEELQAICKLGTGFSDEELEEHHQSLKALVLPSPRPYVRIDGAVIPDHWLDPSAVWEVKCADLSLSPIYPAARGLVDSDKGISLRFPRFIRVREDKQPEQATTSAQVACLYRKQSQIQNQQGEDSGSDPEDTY

| Structure (SMILES) | inhibition at 100 µM [1, 9] [%] | inhibition of hLigI (DNA ligase I), in words [1] | % activity Inhibition hLigIII gel [2] | inhibition at 100 µM [3, 10] [%] | inhibition at 100 µM [4, 11] [%] | % activity Inhibition hLigIV 100 uM [4, 12] | inhibition at 100 µM ([5]; 100 μM) [%] | % activity Inhibition hLigIII 100 uM [5] | % activity Inhibition hLigI 100 uM ([1]; 100 uM) | % activity Inhibition hLigIV gel [7] | % activity Inhibition LigT4 100 uM [3] | inhibition at 100 µM [4, 13] [%] | inhibition of human DNA ligase IV, in words [4] | EC50 [8] [µM] | also measured |
| --- | --- | --- | --- | --- | --- | --- | --- | --- | --- | --- | --- | --- | --- | --- | --- |
| CSc1ccc(C(=O)O)s1 [Compound 1] | 40 ± 9 | specific for DNA ligase I | Ø | 0 | 0 | Ø | 0 | Ø | – | – | – | – | – | – | inhibition at 100 µM ([1]; 100 uM, read-out: % activity Inhibition hLigI 100 uM): 40.3 ± 8.6%; inhibition at 100 µM ([3]; read-out: % activity Inhibition LigT4 100 uM): 0% |
| O=C(O)CN1C(=O)C(=O)c2ccccc21 [Compound 76] | – | – | – | – | – | – | – | – | – | – | – | – | – | – | inhibition of step 3 of the ligation reaction [6]: inhibit step 3 |
| CCn1nc(N)c2c(O)nc(O)cc21 [Compound 93] | 0 | – | – | 0 | 37 ± 6 | – | 0 | Ø | Ø | Ø | Ø | 37.6 ± 6.1 | specific for DNA ligase IV | – | – |
| NS(=O)(=O)c1ccc(CCNC(=O)CCS(=O)(=O)c2ccc(Br)cc2)cc1 [Compound 113] | – | inhibited hLigI; also recorded: specifically inhibits both DNA ligases I and IV | Ø | – | – | >50% | – | Ø | 53.4 ± 7.6% | 83% | 5.4 ± 4.5% | – | specifically inhibits both DNA ligases I and IV | – | In vitro % inhib hLigI 100 (μM) ([1]; 100 μM): 53 ± 8%; hLigI_Inh % (100 μM) ([1]; 100 μM, percentage of values obtained with DMSO alone): 53.4 ± 7.6%; In vitro % inhib T4 100 (μM) ([3]; 100 μM): 5 ± 5%; In vitro % inhib hLigIV 100 (μM) ([4]; 100 μM): 83 ± 5%; In vitro % inhib hLigIII 100 (μM) ([5]; 100 μM): 0% |
| O=C(O)Cc1cncc(Br)c1 [Compound 122] | 0 | – | – | 0 | 50 ± 5 | – | 0 | Ø | Ø | 50% | Ø | 16.1 ± 19.1 | specific for DNA ligase IV | > 100 | – |
| O=C(O)c1cnn2c(C(F)(F)F)cc(-c3ccco3)nc12 [Compound 215] | 0 | – | – | 0 | 61 ± 1 | – | 0 | Ø | Ø | 53% | Ø | 60.7 ± 1.3 | specific for DNA ligase IV | > 100 | – |
